In ChEMBL document CHEMBL6096682, “Discovery of D-Ring-Contracted Artemisinin as a Potent Hydrophobic Tag for Targeted Protein Degradation” (J Med Chem, 2025):
pIC50: −log10 of the molar value. One block for each compound: values may come before it. Calls of active or inactive are those of the source. The rule behind the calls is not given here.

Tests used:
MCF7 [1] = test: Antitumor activity against human MCF7 cells xenografted in Balb/c mouse assessed as inhibition of tumor growth at 5 mg/kg, iv administered every 3 days and measured for 21 days; format: functional; settings: MCF7, 504 h, time 21 day, read-out: TGI
MCF7 [2] = test: Antiproliferative activity against human MCF7 cells assessed as reduction in cell viability incubated for 48 hrs by MTT assay relative to control; format: functional
MCF7 [3] = test: Antiproliferative activity against human MCF7 cells assessed as reduction in cell viability incubated for 48 hrs by MTT assay; format: functional, cell-based; settings: MCF7, 48 h
[4] = target: Cyclin-dependent kinase 6 (Homo sapiens) (UniProt Q00534); test: HyT degrader activity at CDK6 in human MCF7 cells assessed as induction of CDK6 degradation at 0.1 to 10 uM incubated for 24 hrs by immunoblot analysis; format: cell-based; settings: dose 0.1-10 µM
[5] = target: Cyclin-dependent kinase 6 (Homo sapiens) (UniProt Q00534); test: HyT degrader activity at CDK6 in human MCF7 cells assessed as induction of CDK6 degradation at 10 uM incubated for 24 hrs by immunoblot analysis; format: cell-based
[6] = target: Histone deacetylase 1 (Homo sapiens) (UniProt Q13547); test: HyT degrader activity at HDAC1 in human MCF7 cells assessed as induction of HDAC1 degradation at 10 uM incubated for 24 hrs by immunoblot analysis; format: cell-based
[7] = target: T1, Protein deacetylase HDAC6 (Homo sapiens) (UniProt Q9UBN7); test: HyT degrader activity at HDAC6 in human MCF7 cells assessed as induction of HDAC6 degradation by measuring decrease in HDAC6 level at 0.1 to 10 uM incubated for 24 hrs by immunoblot analysis; format: cell-based; settings: dose 0.1-10 µM
T1 sequence (whole entry): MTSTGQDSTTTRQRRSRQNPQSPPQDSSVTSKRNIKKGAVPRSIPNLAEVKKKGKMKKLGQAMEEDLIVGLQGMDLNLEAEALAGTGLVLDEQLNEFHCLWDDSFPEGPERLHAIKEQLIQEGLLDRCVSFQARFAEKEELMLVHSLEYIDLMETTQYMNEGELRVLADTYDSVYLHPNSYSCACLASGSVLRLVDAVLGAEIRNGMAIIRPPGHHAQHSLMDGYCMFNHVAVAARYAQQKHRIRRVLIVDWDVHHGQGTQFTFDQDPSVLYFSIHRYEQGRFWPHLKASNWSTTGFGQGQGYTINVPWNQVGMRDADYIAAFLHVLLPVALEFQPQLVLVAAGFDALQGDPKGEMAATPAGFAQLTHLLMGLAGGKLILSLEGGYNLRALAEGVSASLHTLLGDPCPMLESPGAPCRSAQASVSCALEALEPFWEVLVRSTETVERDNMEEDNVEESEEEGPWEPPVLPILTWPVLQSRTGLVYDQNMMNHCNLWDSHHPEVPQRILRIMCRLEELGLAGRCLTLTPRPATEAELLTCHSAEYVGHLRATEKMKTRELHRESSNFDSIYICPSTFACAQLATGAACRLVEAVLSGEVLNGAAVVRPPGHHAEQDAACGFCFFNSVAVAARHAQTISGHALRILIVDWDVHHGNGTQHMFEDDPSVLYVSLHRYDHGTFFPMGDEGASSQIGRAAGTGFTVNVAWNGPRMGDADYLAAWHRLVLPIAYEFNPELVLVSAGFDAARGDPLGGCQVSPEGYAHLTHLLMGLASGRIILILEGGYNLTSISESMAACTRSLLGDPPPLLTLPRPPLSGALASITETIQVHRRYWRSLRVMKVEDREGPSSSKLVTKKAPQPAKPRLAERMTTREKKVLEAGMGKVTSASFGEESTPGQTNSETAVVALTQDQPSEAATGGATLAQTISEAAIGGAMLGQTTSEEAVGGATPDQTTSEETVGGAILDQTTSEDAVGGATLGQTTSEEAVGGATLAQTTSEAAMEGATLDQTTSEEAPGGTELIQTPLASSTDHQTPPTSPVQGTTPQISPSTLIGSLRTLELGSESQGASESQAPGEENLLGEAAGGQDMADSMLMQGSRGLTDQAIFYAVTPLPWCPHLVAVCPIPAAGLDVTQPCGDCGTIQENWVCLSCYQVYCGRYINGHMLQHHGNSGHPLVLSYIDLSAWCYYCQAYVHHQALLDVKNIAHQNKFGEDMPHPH

[8] = target: T2, Histone deacetylase (Homo sapiens) (UniProt Q13547+O15379+Q9UBN7+Q92769+Q9UQL6+Q8WUI4+Q9BY41+Q96DB2+P56524+Q9UKV0+Q969S8); test: HyT degrader activity at HDAC in human MCF7 cells assessed as induction of HDAC degradation by measuring increase in acetylated histone H3 level at 0.1 to 50 uM incubated for 24 hrs by immunoblot analysis; format: cell-based; settings: dose 0.1-50 µM
[9] = target: T2, Histone deacetylase (Homo sapiens); test: HyT degrader activity at HDAC in human MCF7 cells assessed as induction of HDAC degradation by measuring increase in acetylated alpha-tubulin level at 0.1 to 50 uM incubated for 24 hrs by immunoblot analysis; format: cell-based; settings: dose 0.1-50 µM
[10] = target: Histone deacetylase 2 (Homo sapiens) (UniProt Q92769); test: HyT degrader activity at HDAC2 in human MCF7 cells assessed as induction of HDAC2 degradation by measuring decrease in HDAC2 level at 0.1 to 50 uM incubated for 24 hrs by immunoblot analysis; format: cell-based; settings: dose 0.1-50 µM
[11] = target: Histone deacetylase 1 (Homo sapiens) (UniProt Q13547); test: HyT degrader activity at HDAC1 in human MCF7 cells assessed as induction of HDAC1 degradation by measuring decrease in HDAC1 level at 0.1 to 50 uM incubated for 24 hrs by immunoblot analysis; format: cell-based; settings: dose 0.1-50 µM
MCF7 [12] = test: Antiproliferative activity against human MCF7 cells overexpressing EGFR assessed as reduction in cell viability incubated for 48 hrs by MTT assay relative to control; format: functional
MCF7 [13] = test: Antiproliferative activity against human MCF7 cells overexpressing ER-alpha Y537S mutant assessed as reduction in cell viability incubated for 48 hrs by MTT assay relative to control; format: functional
[14] = target: T3, Estrogen receptor (Homo sapiens) (UniProt P03372); test: HyT degrader activity at ER-alpha in human MCF7 cells assessed as induction of ER-alpha degradation by measuring decrease in ER-alpha level at 10 uM incubated for 48 hrs by western blot analysis; format: cell-based; set-up: scale not given: the % may be the effect or the level left
T3 sequence (whole entry): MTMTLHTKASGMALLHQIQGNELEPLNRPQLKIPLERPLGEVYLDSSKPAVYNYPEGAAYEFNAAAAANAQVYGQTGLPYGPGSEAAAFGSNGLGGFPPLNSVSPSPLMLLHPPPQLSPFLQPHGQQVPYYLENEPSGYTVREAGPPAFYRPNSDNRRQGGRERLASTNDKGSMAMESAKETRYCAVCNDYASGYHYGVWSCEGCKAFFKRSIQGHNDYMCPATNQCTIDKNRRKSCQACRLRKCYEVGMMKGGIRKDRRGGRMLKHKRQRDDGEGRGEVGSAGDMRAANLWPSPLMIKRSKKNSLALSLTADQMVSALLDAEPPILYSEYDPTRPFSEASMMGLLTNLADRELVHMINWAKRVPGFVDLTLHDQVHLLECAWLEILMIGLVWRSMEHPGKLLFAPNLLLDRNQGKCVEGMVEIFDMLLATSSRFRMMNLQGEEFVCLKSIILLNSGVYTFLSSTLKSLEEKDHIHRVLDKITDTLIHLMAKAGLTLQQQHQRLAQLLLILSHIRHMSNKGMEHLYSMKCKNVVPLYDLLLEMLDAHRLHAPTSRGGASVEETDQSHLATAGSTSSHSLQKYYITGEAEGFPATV

MCF7 [15] = test: Antiproliferative activity against human MCF7 cells overexpressing EGFR assessed as reduction in cell viability incubated for 48 hrs by MTT assay; format: functional, cell-based; settings: MCF7, 48 h
MCF7 [16] = test: Antiproliferative activity against human MCF7 cells overexpressing ER-alpha Y537S mutant assessed as reduction in cell viability incubated for 48 hrs by MTT assay; format: functional, cell-based; settings: MCF7, 48 h
[17] = target: T3, Estrogen receptor (Homo sapiens); test: HyT degrader activity at ER-alpha in human MCF7 cells assessed as induction of ER-alpha degradation by measuring decrease in ER-alpha level at 10 uM incubated for 48 hrs followed by drug wash-out and measured after 24 hrs by western blot analysis; format: cell-based

Chain of Histone deacetylase 1 (Homo sapiens) (Q13547 whole entry): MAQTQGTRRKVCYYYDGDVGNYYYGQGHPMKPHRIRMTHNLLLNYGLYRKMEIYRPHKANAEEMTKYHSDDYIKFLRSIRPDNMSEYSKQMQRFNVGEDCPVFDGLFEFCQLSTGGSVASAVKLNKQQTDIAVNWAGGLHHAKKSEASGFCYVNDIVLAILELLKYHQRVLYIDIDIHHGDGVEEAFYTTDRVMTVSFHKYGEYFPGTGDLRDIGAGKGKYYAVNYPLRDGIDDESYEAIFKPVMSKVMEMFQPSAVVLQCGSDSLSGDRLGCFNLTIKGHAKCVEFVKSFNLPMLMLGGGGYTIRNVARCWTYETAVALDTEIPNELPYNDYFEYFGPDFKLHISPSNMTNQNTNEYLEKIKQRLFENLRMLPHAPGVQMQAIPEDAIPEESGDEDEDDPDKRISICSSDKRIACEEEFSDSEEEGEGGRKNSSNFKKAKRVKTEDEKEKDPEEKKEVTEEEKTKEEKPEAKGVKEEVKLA
Chain of Cyclin-dependent kinase 6 (Homo sapiens) (Q00534 whole entry): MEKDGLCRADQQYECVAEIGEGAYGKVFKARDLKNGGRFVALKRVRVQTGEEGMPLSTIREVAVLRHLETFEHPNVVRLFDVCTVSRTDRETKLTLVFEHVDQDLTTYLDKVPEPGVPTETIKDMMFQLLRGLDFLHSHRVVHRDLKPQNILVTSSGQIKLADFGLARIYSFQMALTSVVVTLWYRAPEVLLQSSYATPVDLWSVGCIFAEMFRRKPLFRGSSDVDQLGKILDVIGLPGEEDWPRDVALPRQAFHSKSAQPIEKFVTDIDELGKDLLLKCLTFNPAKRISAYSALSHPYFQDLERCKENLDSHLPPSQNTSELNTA
Chain of Histone deacetylase 2 (Homo sapiens) (Q92769 whole entry): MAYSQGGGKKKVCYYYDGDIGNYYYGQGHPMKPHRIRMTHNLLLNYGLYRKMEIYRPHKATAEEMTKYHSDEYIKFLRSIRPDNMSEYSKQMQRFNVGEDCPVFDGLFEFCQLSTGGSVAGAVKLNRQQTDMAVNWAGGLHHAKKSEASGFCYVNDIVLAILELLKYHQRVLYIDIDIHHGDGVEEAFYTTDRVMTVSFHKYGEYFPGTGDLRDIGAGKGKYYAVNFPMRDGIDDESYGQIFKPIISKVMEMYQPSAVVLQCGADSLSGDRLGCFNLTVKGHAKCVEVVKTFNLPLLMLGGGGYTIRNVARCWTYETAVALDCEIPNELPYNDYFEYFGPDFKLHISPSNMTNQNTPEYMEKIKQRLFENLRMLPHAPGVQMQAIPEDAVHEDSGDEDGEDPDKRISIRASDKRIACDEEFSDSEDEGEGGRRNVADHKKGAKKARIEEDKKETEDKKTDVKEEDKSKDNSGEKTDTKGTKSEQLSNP

Compound: O=C(c1ccc(OCCN2CCCCC2)cc1)c1c(-c2ccc(O)cc2)sc2cc(O)ccc12 [RALOXIFENE]
inhibition in vivo at 5 mg/kg (MCF7 [1]): 68.8%

Compound: C[C@@H]1CCC2[C@]34OO[C@](C)(CCC13)OC4O[C@]2(C)C(=O)NCCOc1ccc(C(=O)c2c(-c3ccc(O)cc3)sc3cc(O)ccc23)cc1 (single isomer, unassigned)
inhibition (INH) (MCF7 [2]): 42.6% | pIC50 (MCF7 [3]): < 4.00

Compound: C[C@]12CC[C@@H]3c4ccc(O)cc4C[C@@H](CCCCCCCCC[S+]([O-])CCCC(F)(F)C(F)(F)F)[C@H]3[C@@H]1CC[C@@H]2O (stereo partly specified) [FULVESTRANT]
inhibition in vivo at 5 mg/kg (MCF7 [1]): 87%

Compound: CC(=O)c1c(C)c2cnc(NCCCNC(=O)[C@@]3(C)OC4O[C@@]5(C)CCC6[C@H](C)CCC3[C@@]46OO5)nc2n(C2CCCC2)c1=O (single isomer, unassigned)
Activity [4]: Active | Activity [5]: 73% | pIC50 (MCF7 [3]): 5.30

Compound: C[C@@H]1CCC2[C@]34OO[C@](C)(CCC13)OC4O[C@]2(C)C(=O)NCCCC(=O)Nc1ccc(NC(=O)CCCCCCC(=O)NO)cc1 (single isomer, unassigned)
Activity [6]: 84% | Activity [7]: Active | Activity [8]: Active | Activity [9]: Active | Activity [10]: Active | pIC50 (MCF7 [3]): 5.28 | Activity [11]: Active

Compound: C[C@@H]1CCC2[C@]34OO[C@](C)(CCC13)O[C@@H]4O[C@]2(C)C(=O)NCCCCCCOc1ccc(C(=O)c2c(-c3ccc(O)cc3)sc3cc(O)ccc23)cc1 (stereo partly specified)
inhibition (INH) (MCF7 [2]): 57.1% | pIC50 (MCF7 [3]): 4.34

Activity [14]: 77.5% | pIC50 (MCF7 [15]): 4.80 | pIC50 (MCF7 [16]): < 4.30 | pIC50 (MCF7 [3]): 5.02 | Activity [17]: Active
Compound: O=C(c1ccc(OCCCNC(=O)C23CC4CC(CC(C4)C2)C3)cc1)c1c(-c2ccc(O)cc2)sc2cc(O)ccc12
inhibition (INH) (MCF7 [12]): 57.9% | inhibition (INH) (MCF7 [13]): 41.7% | inhibition (INH) (MCF7 [2]): 70.8%

Compound: C[C@@H]1CCC2[C@]34OO[C@](C)(CCC13)O[C@@H]4O[C@]2(C)C(=O)NCCCCOc1ccc(C(=O)c2c(-c3ccc(O)cc3)sc3cc(O)ccc23)cc1 (stereo partly specified)
inhibition (INH) (MCF7 [2]): 63.5% | pIC50 (MCF7 [3]): 4.94
